The text below walks through data of article PMC10508830 (Antiviral research, 2023).

The target of the test is NA of A/Alabama/03/2020 A(H1N1)pdm09 (H275Y) (Influenza A virus, UniProt A0A0X9QTS2, H275Y). It counts as biochemical. Conditions: for IC50: read-out: Mean IC50 ± SD.

On to peramivir, for which the IC50 fold-change is listed as 15.25 ± 2.11 (254) fold and the IC50 (in general, the concentration at which inhibition is half-maximal) amounted to 15.2 nM. Consider oseltamivir carboxylate, for which the IC50 was 230 nM.
